Data on two compounds can be found in patent publication US4278762A, “Method for the quantitative determination of plasminogen activators” (Pentapharm AG, priority 1976, dated 1981).

What all share (type): biochemical
The target of experiment [1] is T1, urokinase (Homo sapiens, UniProt P00749).
T1 construct: also urine of healthy test persons
Briefly: Enzyme quantity splitting substrate I at 1 μmole pNA per minute (Table II), urokinase. Conditions: 37° C., pH 8.4, ionic strength 0.3, substrate concentration 10^-4 mole. On the procedure:
(§1) In the first column of Table II are listed the quantities of the various enzymes which split substrate I at a temperature of 37° C., a pH of 8.4, an ionic strength of 0.3 and a substrate concentration of 10^-4 mole with a velocity of 1 μmole per minute. In the second column the corresponding enzyme quantity, expressed in other enzyme units, is indicated.

Experiment [2] has as its system urine kallikrein. As to the kind of experiment: Enzyme quantity splitting substrate I at 1 μmole pNA per minute (Table II), urine kallikrein. Here is the method:
BAEE (Benzoyl-L-arginine ethyl ester)--1 BAEE unit of urine kallikrein is that quantity of enzyme which hydrolyzes 1 μmole of benzoyl-L-arginine ethyl ester per minute under standard conditions.
as §1

Experiment [3] relates to human thrombin. As to the kind of experiment: Enzyme quantity splitting substrate I at 1 μmole pNA per minute (Table II), thrombin. Here is the method: NIH is a unit which was standardized by the "US National Institute of Health".
as §1

For experiment [4], the system named is human plasmin. As to the kind of experiment: Enzyme quantity splitting substrate I at 1 μmole pNA per minute (Table II), plasmin. To be noted: 37° C., pH 8.4, ionic strength 0.3, substrate concentration 10^-4 mole. On the procedure: CU is the casein unit which is measured on casein under standard conditions.
as §1

Experiment [5] has as its target T1, urokinase. As to the kind of experiment: Determination of urokinase concentration with substrate I (ΔOD versus urokinase quantity). Conditions: ΔOD within 10 minutes. Here is the method:
In the appended drawing the sole figure represents a graph in which the change in the optical density Δ OD caused by the hydrolytic action of various quantities of urokinase on substrate I within 10 minutes is plotted as a function of the urokinase quantity in a co-ordinate system. From this graph it can be seen that urokinase concentrations can be determined accurately in the range of 1 to 10 CTA/ml. In the determination of the urokinase content in the urine of 14 healthy test persons values of about 8 CTA units per ml of urine were found.

Experiment [6] deals with T2, bovine trypsin (Bos taurus, UniProt P00760).
T2 sequence (P00760 24-246): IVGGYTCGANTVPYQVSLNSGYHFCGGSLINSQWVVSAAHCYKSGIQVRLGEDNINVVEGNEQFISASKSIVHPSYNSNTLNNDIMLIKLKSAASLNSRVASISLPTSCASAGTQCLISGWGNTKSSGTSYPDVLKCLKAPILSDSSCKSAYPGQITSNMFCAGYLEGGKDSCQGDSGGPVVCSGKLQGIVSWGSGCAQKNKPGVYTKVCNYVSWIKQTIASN
Briefly: Activity of bovine trypsin at constant substrate and enzyme concentrations (Table IV). Conditions: substrate concentration 2 × 10^-4 M; pH 8.4, ionic strength 0.30, 37° C., 405 nm. On the procedure:
The results listed in Table IV were obtained under the following experimental conditions: In a measuring vessel 1.7 ml of tris-imidazole buffer having a pH of 8.4 and an ionic strength of 0.30 were mixed at 37° C. with 0.1 ml of an aqueous trypsin solution having a concentration of 2 NF units of trypsin per ml. To the mixture 0.2 ml of a 2×10^-3 molar solution of the substrate to be tested was added. Thereafter, the quantity of p-nitroaniline released from the substrate by the action of the trypsin was determined by measuring the change in the optical density Δ OD per minute at a wave length of 405 nm.

Experiment [7] addresses T1, urokinase. Briefly: Kinetic constants Km and vmax of substrate hydrolysis by urokinase (Lineweaver-Burk). Conditions: per CTA unit, pH 8.4, ionic strength 0.30, 37° C. Here is the method:
The enzyme and the substrate are mixed in a buffer solution, and the hydrolysis reaction is followed for 2 to 30 minutes. The concentration of substate [S] is varied, whereas the enzyme concentration is kept constant. If the extinction (OD=optical density) is plotted in a co-ordinate system as a function of time, a curve is obtained the tangent of which at time zero corresponds to the ideal course of the hydrolysis. By means of this tangent the initial rate of the hydrolysis can be determined.
If 1/v is plotted against (1/[S]), a Lineweaver-Burk diagram (cf. "Kurzes Lehrbuch der Biochemie" by P. KARLSON, Georg Thieme-Verlag, Stuttgart, 1967, p. 70) is obtained from which vmax and Km can be determined graphically.
For the determination of the kinetic constants Km and vmax listed in Table I aqueous dilution series of the substrates with concentrations from 0.1 to 2 μmoles/ml were used. […] The value of the quantity of p-nitroaniline formed per minute is a measure for the rate of hydrolysis at a given substrate concentration. […] The kinetic constants Km and vmax were determined from the points of intersection of the curves with the abscissa and the ordinate.

Experiment [8] addresses T2, bovine trypsin. Briefly: Enzyme quantity splitting substrate I at 1 μmole pNA per minute (Table II), trypsin. Conditions: 37° C., pH 8.4, ionic strength 0.3, substrate concentration 10^-4 mole. On the procedure:
NF is the trypsin unit, i.e. that quantity of enzyme which causes a change in the absorption Δ OD of 0.003 per minute, measured on benzoyl-L-arginine ethyl ester under standard conditions (cf. "The National Formulary XII", edited by "The American Pharmaceutical Association", Washington, D.C., 1965, pages 417-418).
as §1

For experiment [9], the target named is T3, trypsin (Bos taurus, UniProt P00760).
T3 construct: b360 concerns trypsin in duodenal juice
T3 sequence (P00760 24-246): T2 sequence (P00760 24-246)
As to the kind of experiment: Determination of trypsin in duodenal juice with substrate. Conditions: per ml of test sample; pH 8.4, ionic strength 0.30, 37° C., 405 nm. On the procedure: The determination of trypsin in duodenal juice can be carried out for instance as follows: 1.79 ml of tris-imidazole buffer having a pH of 8.4 and an ionic strength of 0.30 are mixed with 0.01 ml of duodenal juice at 37° C. in a measuring vessel. Thereafter, the mixture is rapidly mixed with 0.2 ml of a 2×10^-3 molar solution of a substrate of this invention. The quantity of p-nitroaniline released from the substrate by the action of trypsin is determined by measuring the change in the optical density Δ OD per minute at a wave length of 405 nm. The quantity of p-nitroaniline released per minute or the corresponding change in the optical density is proportional to the trypsin activity. When using the substrate prepared according to Example 10, i.e. N^α -Cbo-C.cyclohexylglycyl-Gly-Arg-pNA.HCl, trypsin can be determined for instance at concentrations as low as 0.01 NF unit per ml of test sample.

The mark [10] stands for this setting: 37° C., pH 8.4, ionic strength 0.3, substrate concentration 10^-4 mole.

Each structure is given as a SMILES string. Structures can show the parent of a compound that is named as a salt. Non-standard residues stand in square brackets, D forms with d. Residues, ends and D or L forms follow the SMILES beside them. *: point of attachment. pNA = O=[N+]([O-])c1ccc(N*)cc1; Chg = N[C@H](C(=O)O)C1CCCCC1; Cbz = O=C(OCc1ccccc1)*; Bz = O=C(c1ccccc1)*

For the compound `CC(C)[C@H](NC(=O)c1ccccc1)C(=O)NCC(=O)N[C@@H](CCCNC(=N)N)C(=O)Nc1ccc([N+](=O)[O-])cc1` [Substrate I, N^α -Bz-Val-Gly-Arg-pNA.HCl] (Bz-Val-Gly-Arg-pNA), the “enzyme quantity releasing 1 μmole of pNA per minute from substrate I, in corresponding other units” value in experiment [1] is 20250 CTA; in [2] (setting [10]) it was 1688 BAEE; in experiment [3] (setting [10]), 2174 NIH; in experiment [4], 6850 CU; in experiment [8] it was 36.6 NF. Besides, the “splitting by kallikrein present in urine (in words)” value in experiment [2] (conclusion from Table II) is recorded as “split but little”. Also, the “splitting by thrombin (in words)” value in experiment [3] (conclusion from Table II) is “split very little and unspecifically”. Besides, the “range of urokinase concentrations that can be determined accurately” value in experiment [5] lay within 1 to 10 CTA/ml. Moreover, the “Quantity in nanomoles of p-nitroaniline enzymatically released from the substrate by 1 NF unit of trypsin in 1 minute” value in experiment [6] is 20,9 nanomoles. Besides, the Vmax in [7] is on record as 7.27 × 10^-5 μmole/min. CTA.

`N=C(N)NCCC[C@H](NC(=O)CNC(=O)[C@@H](NC(=O)OCc1ccccc1)C1CCCCC1)C(=O)Nc1ccc([N+](=O)[O-])cc1` [Substrate X, N^α -Cbo-C.Cyclohexylglycyl-Gly-Arg-pNA.HCl] (Cbz-[Chg]-Gly-Arg-pNA): the “lowest trypsin concentration that can be determined” value in experiment [9] is recorded as no less than 0.01 NF unit per ml.
